Where a name gives a salt, the structure may show the parent alone.
What was measured:
[1] = target: T1, Bovine LOX (Bos taurus, UniProt P33072); assay: LOX amine oxidase inhibition, peroxidase-coupled Amplex Red assay; assay type: biochemical; conditions: 30 min preincubation at 37° C., putrescine substrate
T1 sequence (P33072 170-418): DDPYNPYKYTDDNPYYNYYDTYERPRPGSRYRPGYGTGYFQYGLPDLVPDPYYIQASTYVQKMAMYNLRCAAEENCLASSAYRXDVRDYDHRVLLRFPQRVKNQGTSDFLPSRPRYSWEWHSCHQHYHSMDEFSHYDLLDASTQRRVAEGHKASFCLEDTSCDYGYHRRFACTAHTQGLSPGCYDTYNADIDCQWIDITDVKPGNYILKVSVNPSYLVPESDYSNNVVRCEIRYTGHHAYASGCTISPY
Description: (§1) Method to Determine the Ability of Compounds of the Invention to Inhibit LOX and LOXL1-4 from Different Sources
Lysyl oxidase (LOX) is an extracellular copper dependent enzyme which oxidizes peptidyl lysine and hydroxylysine residues in collagen and lysine residues in elastin to produce peptidyl alpha-aminoadipic-delta-semialdehydes. […] There are five LOX family members; these are LOX, LOXL1, LOXL2, LOXL3 and LOXL4. LOX and LOXL family members can be acquired as recombinant active proteins from commercial sources, or extracted from animal tissues like bovine aorta, tendons, pig skin; or prepared from cell cultures. The inhibitory effects of the compounds of the present invention were tested against the given LOX-LOXL preparation using a high-throughput coupled colorimetric method (Holt A. and Palcic M., A peroxidase-coupled continuous absorbance plate-reader assay for flavin monoamine oxidases, copper-containing amine oxidases and related enzymes. Nat. Protoc. 2006; 1: 2498-2505). The assay was developed using either 384 or 96 well format. Briefly, in a standard 384 well plate assay 25 μL of a dilution of any of the isoenzymes and orthologues in 1.2 M urea, 50 mM sodium borate buffer (pH 8.2) were added into each well in the presence of 1 μM mofegiline and 0.5 mM pargyline (to inhibit SSAO and MAO-B and MAO-A, respectively). […] Twenty five μL of a reaction mixture containing twice the KM concentration of putrescine (Sigma Aldrich, e.g. 20 mM for LOX, or 10 mM for LOXL2 and LOXL3), 120 μM Amplex Red (Sigma Aldrich) and 1.5 U/mL horseradish peroxidase (Sigma Aldrich) prepared in 1.2 M urea, 50 mM sodium borate buffer (pH 8.2) were then added to the corresponding wells. The above volumes were doubled in the case of 96 wells plate. The fluorescence (RFU) was read every 2.5 min for 30 min at a range of temperatures from 37° to 45° C., excitation 565 nm and emission 590 (Optima; BMG labtech). The slope of the kinetics for each well was calculated using MARS data analysis software (BMG labtech) and this value was used to deduce the IC50 value (Dotmatics).

[2] = target: T2, Human LOXL2 (Homo sapiens, UniProt Q9Y4K0); assay: LOXL2 amine oxidase inhibition, peroxidase-coupled Amplex Red assay; assay type: biochemical; conditions: 30 min preincubation at 37° C., putrescine substrate
T2 sequence (Q9Y4K0 26-774): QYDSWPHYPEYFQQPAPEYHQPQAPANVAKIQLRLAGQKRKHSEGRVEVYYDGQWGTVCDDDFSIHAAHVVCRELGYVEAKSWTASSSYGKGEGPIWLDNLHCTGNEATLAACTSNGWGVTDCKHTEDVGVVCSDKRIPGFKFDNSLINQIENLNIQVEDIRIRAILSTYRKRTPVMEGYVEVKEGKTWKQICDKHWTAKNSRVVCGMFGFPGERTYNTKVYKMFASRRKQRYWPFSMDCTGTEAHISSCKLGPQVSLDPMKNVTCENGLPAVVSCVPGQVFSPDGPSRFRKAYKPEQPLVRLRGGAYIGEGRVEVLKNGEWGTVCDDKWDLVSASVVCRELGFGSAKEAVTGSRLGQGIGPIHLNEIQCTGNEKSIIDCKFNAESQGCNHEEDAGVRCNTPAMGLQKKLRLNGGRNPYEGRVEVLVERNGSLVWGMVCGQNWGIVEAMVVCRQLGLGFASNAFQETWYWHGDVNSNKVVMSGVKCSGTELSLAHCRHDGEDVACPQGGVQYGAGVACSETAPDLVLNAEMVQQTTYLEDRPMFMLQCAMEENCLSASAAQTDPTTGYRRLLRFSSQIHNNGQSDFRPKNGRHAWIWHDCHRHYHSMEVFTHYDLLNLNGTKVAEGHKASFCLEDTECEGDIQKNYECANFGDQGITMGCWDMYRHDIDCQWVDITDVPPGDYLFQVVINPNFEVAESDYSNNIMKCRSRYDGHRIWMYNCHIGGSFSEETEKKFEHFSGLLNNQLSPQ
Description: as §1
Lysyl oxidase (LOX) is an extracellular copper dependent enzyme which oxidizes peptidyl lysine and hydroxylysine residues in collagen and lysine residues in elastin to produce peptidyl alpha-aminoadipic-delta-semialdehydes. […] There are five LOX family members; these are LOX, LOXL1, LOXL2, LOXL3 and LOXL4. LOX and LOXL family members can be acquired as recombinant active proteins from commercial sources, or extracted from animal tissues like bovine aorta, tendons, pig skin; or prepared from cell cultures. The inhibitory effects of the compounds of the present invention were tested against the given LOX-LOXL preparation using a high-throughput coupled colorimetric method (Holt A. and Palcic M., A peroxidase-coupled continuous absorbance plate-reader assay for flavin monoamine oxidases, copper-containing amine oxidases and related enzymes. Nat. Protoc. 2006; 1: 2498-2505). The assay was developed using either 384 or 96 well format. Briefly, in a standard 384 well plate assay 25 μL of a dilution of any of the isoenzymes and orthologues in 1.2 M urea, 50 mM sodium borate buffer (pH 8.2) were added into each well in the presence of 1 μM mofegiline and 0.5 mM pargyline (to inhibit SSAO and MAO-B and MAO-A, respectively). Test compounds were dissolved in DMSO and tested in a Concentration Response Curve (CRC) with 11 data points, typically in the micromolar or nanomolar range after incubation with the enzyme for 30 min at 37° C. Twenty five μL of a reaction mixture containing twice the KM concentration of putrescine (Sigma Aldrich, e.g. 20 mM for LOX, or 10 mM for LOXL2 and LOXL3), 120 μM Amplex Red (Sigma Aldrich) and 1.5 U/mL horseradish peroxidase (Sigma Aldrich) prepared in 1.2 M urea, 50 mM sodium borate buffer (pH 8.2) were then added to the corresponding wells. The above volumes were doubled in the case of 96 wells plate. The fluorescence (RFU) was read every 2.5 min for 30 min at a range of temperatures from 37° to 45° C., excitation 565 nm and emission 590 (Optima; BMG labtech). The slope of the kinetics for each well was calculated using MARS data analysis software (BMG labtech) and this value was used to deduce the IC50 value (Dotmatics).

Structure (SMILES)	IC50 [1] [µM]	IC50 [2] [µM]
Cc1nn(C/C(F)=C/CN)c(C)c1-c1cccc(S(=O)(=O)N(C)C)c1 [Compound 33, (Z)-3-(1-(4-amino-2-fluorobut-2-en-1-yl)-3,5-dimethyl-1H-pyrazol-4-yl)-N,N-dimethylbenzenesulfonamide]	< 10	< 1
Cc1c(-c2cccc(S(=O)(=O)N(C)C)c2)c(Cl)nn1C/C(F)=C/CN [Compound 34, (Z)-3-(1-(4-amino-2-fluorobut-2-en-1-yl)-3-chloro-5-methyl-1H-pyrazol-4-yl)-N,N-dimethylbenzenesulfonamide hydrochloride]	< 10	< 1
Cc1nn(C/C(F)=C/CN)c(Cl)c1-c1cccc(S(=O)(=O)N(C)C)c1 [Compound 35, (Z)-3-(1-(4-amino-2-fluorobut-2-en-1-yl)-5-chloro-3-methyl-1H-pyrazol-4-yl)-N,N-dimethylbenzenesulfonamide hydrochloride]	< 10	< 1
Cc1c(Cc2ccc(S(=O)(=O)N(C)C)c(Cl)c2)c(C(C)O)nn1C/C(F)=C/CN (stereo not drawn) [Compound 37, (Z)-4-((1-(4-amino-2-fluorobut-2-en-1-yl)-3-(1-hydroxyethyl)-5-methyl-1H-pyrazol-4-yl)methyl)-2-chloro-N,N-dimethylbenzenesulfonamide]	< 10	< 1
COCc1c(Cc2ccc(S(=O)(=O)N(C)C)c(Cl)c2)c(C)nn1C/C(F)=C/CN [Compound 38, (Z)-4-((1-(4-amino-2-fluorobut-2-en-1-yl)-5-(methoxymethyl)-3-methyl-1H-pyrazol-4-yl)methyl)-2-chloro-N,N-dimethylbenzenesulfonamide]	< 10	< 1
COCc1nn(C/C(F)=C/CN)c(C)c1Cc1ccc(S(=O)(=O)N(C)C)c(Cl)c1 [Compound 39, (Z)-4-((1-(4-amino-2-fluorobut-2-en-1-yl)-3-(methoxymethyl)-5-methyl-1H-pyrazol-4-yl)methyl)-2-chloro-N,N-dimethylbenzenesulfonamide]	< 10	< 1
Cc1nn(C/C(F)=C/CN)c(C)c1Oc1ccc(S(=O)(=O)N(C)C)c(Cl)c1 [Compound 40, (Z)-4-((1-(4-amino-2-fluorobut-2-en-1-yl)-3,5-dimethyl-1H-pyrazol-4-yl)oxy)-2-chloro-N,N-dimethylbenzenesulfonamide]	< 10	< 1
Cc1nn(C/C(F)=C/CN)c(Cl)c1Cc1ccc(S(=O)(=O)N(C)C)c(Cl)c1 [Compound 41, (Z)-4-((1-(4-amino-2-fluorobut-2-en-1-yl)-5-chloro-3-methyl-1H-pyrazol-4-yl)methyl)-2-chloro-N,N-dimethylbenzenesulfonamide]	< 10	< 1
Cc1c(Cc2ccc(S(=O)(=O)N(C)C)c(Cl)c2)c(Cl)nn1C/C(F)=C/CN [Compound 42, (Z)-4-((1-(4-amino-2-fluorobut-2-en-1-yl)-3-chloro-5-methyl-1H-pyrazol-4-yl)methyl)-2-chloro-N,N-dimethylbenzenesulfonamide]	< 10	< 1
Cc1nn(C/C(F)=C/CN)c(C(C)C)c1Cc1ccc(S(C)(=O)=O)nc1 [Compound 43, (Z)-3-fluoro-4-(5-isopropyl-3-methyl-4-((6-(methylsulfonyl)pyridin-3-yl)methyl)-1H-pyrazol-1-yl)but-2-en-1-amine dihydrochloride]	< 10	< 1
Cc1nn(C/C(F)=C/CN)c(C)c1Cc1ccc(S(=O)(=O)C(F)(F)F)cc1 [Compound 44, (Z)-4-(3,5-dimethyl-4-(4-((trifluoromethyl)sulfonyl)benzyl)-1H-pyrazol-1-yl)-3-fluorobut-2-en-1-amine hydrochloride]	< 10	< 1
CNS(=O)(=O)c1ccc(Cc2c(C)nn(C/C(F)=C/CN)c2C)cc1OC(F)(F)F [Compound 45, (Z)-4-((1-(4-amino-2-fluorobut-2-en-1-yl)-3,5-dimethyl-1H-pyrazol-4-yl)methyl)-N-methyl-2-(trifluoromethoxy)benzenesulfonamide hydrochloride]	< 10	< 1

From patent US20200069648A1, “HALOALLYLAMINE PYRAZOLE DERIVATIVE INHIBITORS OF LYSYL OXIDASES AND USES THEREOF” (Pharmaxis Ltd., priority 2017, published 2020)
